Results on two compounds are retold here after patent US20100266573A1, “METHOD AND MEANS FOR OBTAINING BRONCHORELAXATION” (Pharmalundensis AB, priority 2007, published 2010).

For data set [1], the system named is patient with chronic obstructive pulmonary disease (COPD). Kind of data set: Administration of iodine on activated charcoal to a COPD patient, spirometric evaluation and observed bronchorelaxation. The conditions noted are these: same COPD patient; 50 mg elemental iodine in a gelatin capsule for a few days. Type of data set: in vivo, human. The text has this: A person, had been smoking cigarettes daily for many years, but quit about 10 years ago. The decision to quit smoking was caused by increasing problems from the airways, with repeated episodes of pneumonia and airway obstruction. These symptoms were usually treated with antibiotics, steroids and bronchodilators.
After that, the airway symptoms increased considerably, with month-long episodes of cough and exercise-induced dyspnea.
In the following months the situation continued to worsen with loss of appetite, reduction of weight and severe dyspnea during rest, in spite of maximum treatment with anti-cholinergics, steroids and bronchodilators. The patient now felt desperately ill, and questioned how long they would be able to survive.
The severity of their condition prompted the patient to look for alternative treatments. […] […] […] A renewed spirometric evaluation a few months later confirmed the subjective improvements (FEV1=2.79 L, corresponding to 97.1% of their reference value and PEF=427 L/min, corresponding to 92.5% of their reference value).
The patient has continued to regularly take the combination for more than a year and still experiences the full benefit of it. A temporary discontinuation of the intake for a few days led to the reappearance of many of the symptoms. However, they quickly disappeared upon the resumption of the intake of iodinated activated charcoal. […]

The conditions of data set [2]: may cause adverse effects in some individuals; cited from earlier work.
For data set [3] the following is noted: humans; cited from earlier work.

On to `II` [elemental iodine, iodine], for which the bronchorelaxing effect result in data set [1] is reported as “no distinct bronchorelaxing effect was observed”. In addition, in data set [2], the “iodine intake probably safe for the majority of the population” value is listed as “less than or equal to 1,000 mg/day”.

`[Br-].[Na+]` [Sodium bromide, sodium bromide]: the no-effect level in data set [3] was 4 mg/kg body weight.
